Reference: patent US20240228572A1 (i2o Therapeutics, Inc., priority 2020, published 2024)
*1 amine or outer side, *2 acyl side, *3 side chain or, on linkers, in order; H or OH if unused. Where a SMILES comes first, the peptide text is derived from it. Side-chain parts run from the residue outwards. [ ]: non-standard residue; d: D form. The star is where a group is joined. C20 diacid = O=C(O)CCCCCCCCCCCCCCCCCCC(=O)*; γGlu = O=C(O)[C@H](CCC(=O)[*:2])N[*:1]; AEEA = NCCOCCOCC(=O)O; Aib = CC(C)(N)C(=O)O

How the values were obtained:
[1] = Subcutaneous bolus injection pharmacokinetics / bioavailability in rats; assay type: in vivo; conditions: rat, plasma; SC bolus 0.11 mg/kg, male Sprague-Dawley rats
Protocol: Peptides were dissolved in sterile saline and administered to non-fasted male Sprague-Dawley rats (n=3 per group) at a dose of 0.1 mg/kg via a single bolus injection into the subcutaneous space between the scapulae. Blood samples (approximately 250 μL) were collected for pharmacokinetic analysis via a jugular vein cannula at 0.083, 0.25, 0.5, 1, 2, 4, 8, 24, 48, 72, 96, and 120 hr post-dose into microtainer tubes containing K2EDTA as anticoagulant and 25 μL of a protease inhibitor cocktail. Plasma was prepared by centrifugation and stored at −80° C. until analysis.
A 70 μL aliquot of each plasma sample was placed into to a 96-well plate. To each well was added 210 μL of 0.1% TFA in 2:1 ethanol:acetonitrile containing an appropriate internal standard. Plates were vortex mixed for 10 min at 1300 rpm, and then centrifuged for 10 min at 500× g. Supernatants (210 μL) were placed into a clean 96-well plate and evaporated under a nitrogen stream at 45° C. Residues were reconstituted in 80 μL of 20% acetonitrile (aq) containing 0.1% formic acid.
All calibration standards were prepared in control rat plasma containing K2EDTA and protease inhibitor cocktail.
Samples and standards were analyzed by electrospray ionization (ESI) UPLC-MS/MS using a system consisting of a CTC HTS PAL auto-injector (Leap, Carrboro, NC), an Agilent Infinity 1290 system with column oven (Palo Alto, CA), a Valco switching valve (Houston, TX), and a Sciex TripleTOF® 5600 mass spectrometer (Framingham, MA). Samples were injected onto a 2.1×50 mm reverse phase C18 analytical column, typically a Waters CORTECS UPLC C18+, 1.6 μm (Waters Corporation, Milford, MA) or similar. […] Initial conditions consisted of 95% A and 5% B. The organic component was increased to 95% B over a period of 3-4 minutes, depending on the peptide. Typical flow rates were 550 μL/min. The column temperature was held constant at 45° C. Peptides were quantified by monitoring one or more product ions produced from a multiply charged parent ion.

[2] = Stability in human subcutaneous (SC) tissue homogenates; assay type: in vitro ADME; conditions: subcutaneous (SC) tissue homogenate, 10 mcM peptide, 1.0 mg protein/mL, 37° C., pH 7.4, read-out: (H)SC tissue stability t½ (converted)
Protocol: In vitro incubations in subcutaneous (SC) tissue homogenates were used to characterize the ability of peptides to resist pre-systemic degradation by proteases and peptidases after SC administration. In vivo nonclinical studies have shown that peptidase activity in the SC space can limit the bioavailability of a peptide after SC administration. Peptides with high SC bioavailability are stable in this assay, while peptides with low SC bioavailability are unstable in this assay.
Human SC tissue was homogenized in cold 25 mM HEPES buffer (pH 7.4, 10-fold volume based on sample weight), and then filtered through a double layer of cheesecloth. The filtrates were aliquoted, flash frozen on a methanol/dry ice bath and stored at −80° C. The protein concentration of each pooled batch was determined using the BCA protein assay. Thawed stocks of human SC tissue homogenates were diluted to 1.0 mg protein/mL in 25 mM HEPES buffer (pH 7.4) and aliquoted into a 96-well plate. The diluted SC homogenates were pre-warmed for 10 minutes at 37° C. Reactions were initiated by the addition of test peptide (10 mcM final concentration) also dissolved in 25 mM HEPES buffer (pH 7.4). Reactions were maintained at 37° C. in a shaking water bath. […] Samples were analyzed by UPLC-MS/MS.

For CC(C)C[C@H](NC(=O)[C@H](Cc1ccc(O)cc1)NC(=O)[C@H](CCCCN)NC(=O)[C@H](CO)NC(=O)[C@H](Cc1ccc(O)cc1)NC(=O)[C@H](CC(=O)O)NC(=O)[C@H](CO)NC(=O)[C@@H](NC(=O)[C@H](Cc1ccccc1)NC(=O)[C@@H](NC(=O)CNC(=O)[C@H](Cc1c[nH]cn1)NC(=O)[C@H](CO)NC(=O)[C@@H](N)Cc1ccc(O)cc1)[C@@H](C)O)[C@@H](C)O)C(=O)N[C@@H](CC(=O)O)C(=O)NC(C)(C)C(=O)N[C@@H](CCCCN)C(=O)N[C@@H](Cc1ccc(O)cc1)C(=O)N[C@@H](C)C(=O)N[C@@H](CCC(N)=O)C(=O)N[C@@H](CCCCNC(=O)CC[C@H](NC(=O)CC[C@H](NC(=O)COCCOCCNC(=O)CCCCCCCCCCCCCCCCCCC(=O)O)C(=O)O)C(=O)O)C(=O)N[C@@H](Cc1ccccc1)C(=O)N[C@H](C(=O)NC(C)(C)C(=O)N[C@@H](Cc1c[nH]c2ccccc12)C(=O)N[C@@H](CC(C)C)C(=O)N[C@@H](CCC(=O)O)C(=O)N[C@@H](CC(=O)O)C(=O)N[C@@H](CCC(=O)O)C(=O)N1CCC[C@H]1C(=O)N[C@@H](CO)C(=O)N[C@@H](CO)C(=O)NCC(=O)N[C@@H](C)C(=O)N1CCC[C@H]1C(=O)N1CCC[C@H]1C(=O)N1CCC[C@H]1C(=O)N[C@@H](CO)C(=O)O)C(C)C [Compound A6] (H-YSHGTFTSDYSKYLD[Aib]KYAQK([γGlu-γGlu-AEEA-C20 diacid])FV[Aib]WLEDEPSSGAPPPS-OH; N-terminus assumed), which Cmax [1] is on record?
Its Cmax is 462 ng/mL.

What about the Tmax [1] of the same molecule?
The Tmax was 8 to 24 h.

And the bioavailability [1]?
Its bioavailability is 94.9%.

And the half-life [1]?
The half-life was 948 min.

And the half-life at 10 mcM [2]?
The half-life at 10 mcM was 636 min.
